According to US8252832B2, “Kinesin inhibitors as cancer therapeutics” (Novartis AG, priority 2007, dated 2012):
Read-outs that look alike come from different tables or passages of the source.

Tested on: panel of cell lines and tumor explants
Test: Soft agar (clonogenic) assay on cell lines and tumor explants
Type: cell-based, human
Design: key to Differential: panel average log(GI50) minus sample log(GI50); positive = more sensitive
Details: for Differential: average log(GI50) 0.236 minus log(GI50); for GI50: Homo sapiens
Experimental: Compound IIa was tested against a panel of cell lines and tumor explants in a soft agar assay as described in Fiebig, H. H., Maier, A., and Burger, A. M. (Clonogenic assay with established human tumour xenorafts: correlation of in vitro to in vivo activity as a basis for anticancer drug discovery, Eur. J. Cancer 40, 802-820 (2004).) Table 16 lists the type of cancer, the name of the sample, its GI50 (concentration needed to achieve 50% growth inhibition) value in the assay, the logarithm of the GI50 (log(GI50), and the relative sensitivity of each sample (Differential). The differential is calculated by subtracting the log(GI50) for each cell line from the average log(GI50) across the entire panel (0.236 in this case); a positive value indicates a sample that is more sensitive than average, whereas a negative value indicates a sample that is less sensitive than average.

Q: For `CC(C)(C)[C@H](c1nc(-c2cc(F)ccc2F)cn1Cc1ccccc1)N(CC[C@H](N)CF)C(=O)CO` [Compound IIa], which Differential (Bladder, sample 439) is on record?
A: −0.764

Q: And the Differential (Bladder, sample 1036)?
A: 1.176

Q: What about the Differential (Bladder, sample 1218) of the same compound?
A: 0.530

Q: And the Differential (Bladder, sample 1228)?
A: 0.738

Q: And the Differential (Bladder, sample 1258)?
A: −0.996

Q: What about the Differential (Bladder, sample 1352) of the same compound?
A: 0.249

Q: And the Differential (Breast, sample 401)?
A: 0.486

Q: What about the Differential (Breast, sample 449) of the same compound?
A: 0.509

Q: What about the Differential (Breast, sample 574) of the same compound?
A: −0.764

Q: What about the Differential (Breast, sample 583) of the same compound?
A: 0.858

Q: What about the Differential (Breast, sample 713) of the same compound?
A: 0.849

Q: What about the Differential (Breast, sample 857) of the same compound?
A: −0.154

Q: And the Differential (Breast, sample 1162)?
A: 0.780

Q: And the Differential (Breast, sample 1322)?
A: 0.090

Q: What about the Differential (Breast, sample 1384) of the same compound?
A: −0.189

Q: And the Differential (Breast, sample 1398)?
A: 0.858

Q: And the Differential (Colorectal, sample 94LX)?
A: −1.054

Q: And the Differential (Colorectal, sample 158)?
A: −0.764

Q: What about the Differential (Colorectal, sample 233) of the same compound?
A: 0.860

Q: What about the Differential (Colorectal, sample 243) of the same compound?
A: −0.764

Q: What about the Differential (Colorectal, sample 260) of the same compound?
A: −0.764

Q: And the Differential (Colorectal, sample 268)?
A: −0.559

Q: What about the Differential (Colorectal, sample 280) of the same compound?
A: −0.764

Q: And the Differential (Colorectal, sample 504)?
A: 0.800

Q: And the Differential (Colorectal, sample 533)?
A: −0.007

Q: What about the Differential (Colorectal, sample 609) of the same compound?
A: −0.764

Q: What about the Differential (Colorectal, sample 647) of the same compound?
A: −0.764

Q: And the Differential (Colorectal, sample 676)?
A: −0.764

Q: What about the Differential (Colorectal, sample 742) of the same compound?
A: −0.036

Q: What about the Differential (Colorectal, sample 975) of the same compound?
A: −0.764

Q: And the Differential (Colorectal, sample 1034)?
A: 0.906

Q: What about the Differential (Colorectal, sample 1044) of the same compound?
A: 0.450

Q: And the Differential (Colorectal, sample 1103)?
A: 0.236

Q: And the Differential (Colorectal, sample 1297)?
A: −0.764

Q: What about the Differential (Colorectal, sample 1299) of the same compound?
A: −0.764

Q: And the Differential (Colorectal, sample 1729)?
A: −0.764

Q: What about the Differential (Colorectal, sample 1753) of the same compound?
A: −0.816

Q: And the Differential (Colorectal, sample 1783)?
A: 0.378

Q: And the Differential (Colorectal, sample 1784)?
A: −0.539

Q: And the Differential (Colorectal, sample 1788)?
A: −0.115

Q: What about the Differential (Gastric, sample 209) of the same compound?
A: −0.764

Q: What about the Differential (Gastric, sample 214) of the same compound?
A: −0.718

Q: What about the Differential (Gastric, sample 1172) of the same compound?
A: −0.764

Q: And the GI50 (22Rv1, Prostate, sample 22RV1, GI50 in nM, read-out: log(GI50) (converted))?
A: 0.537 nM

Q: What about the GI50 (22Rv1, Prostate, sample 22RV1, read-out: GI50) of the same compound?
A: 0.537 nM

Q: And the GI50 (Bladder, sample 439, GI50 in nM, read-out: log(GI50) (converted))?
A: ≥ 10 nM

Q: What about the GI50 (Bladder, sample 439, read-out: GI50) of the same compound?
A: 10 nM

Q: What about the GI50 (Bladder, sample 1036, GI50 in nM, read-out: log(GI50) (converted)) of the same compound?
A: 0.115 nM

Q: What about the GI50 (Bladder, sample 1036, read-out: GI50) of the same compound?
A: 0.115 nM

Q: And the GI50 (Bladder, sample 1218, GI50 in nM, read-out: log(GI50) (converted))?
A: 0.509 nM

Q: And the GI50 (Bladder, sample 1218, read-out: GI50)?
A: 0.509 nM

Q: And the GI50 (Bladder, sample 1228, GI50 in nM, read-out: log(GI50) (converted))?
A: 0.315 nM

Q: What about the GI50 (Bladder, sample 1228, read-out: GI50) of the same compound?
A: 0.315 nM

Q: What about the GI50 (Bladder, sample 1258, GI50 in nM, read-out: log(GI50) (converted)) of the same compound?
A: 17.1 nM

Q: What about the GI50 (Bladder, sample 1258, read-out: GI50) of the same compound?
A: 17.1 nM

Q: And the GI50 (Bladder, sample 1352, GI50 in nM, read-out: log(GI50) (converted))?
A: 0.973 nM

Q: What about the GI50 (Bladder, sample 1352, read-out: GI50) of the same compound?
A: 0.972 nM

Q: What about the GI50 (Breast, sample 401, GI50 in nM, read-out: log(GI50) (converted)) of the same compound?
A: 0.564 nM

Q: What about the GI50 (Breast, sample 401, read-out: GI50) of the same compound?
A: 0.563 nM

Q: And the GI50 (Breast, sample 449, GI50 in nM, read-out: log(GI50) (converted))?
A: 0.535 nM

Q: And the GI50 (Breast, sample 449, read-out: GI50)?
A: 0.534 nM

Q: And the GI50 (Breast, sample 574, GI50 in nM, read-out: log(GI50) (converted))?
A: ≥ 10 nM

Q: And the GI50 (Breast, sample 574, read-out: GI50)?
A: 10 nM

Q: And the GI50 (Breast, sample 583, GI50 in nM, read-out: log(GI50) (converted))?
A: 0.239 nM

Q: And the GI50 (Breast, sample 583, read-out: GI50)?
A: 0.239 nM

Q: And the GI50 (Breast, sample 713, GI50 in nM, read-out: log(GI50) (converted))?
A: 0.244 nM

Q: And the GI50 (Breast, sample 713, read-out: GI50)?
A: 0.244 nM

Q: And the GI50 (Breast, sample 857, GI50 in nM, read-out: log(GI50) (converted))?
A: 2.45 nM

Q: And the GI50 (Breast, sample 857, read-out: GI50)?
A: 2.46 nM

Q: And the GI50 (Breast, sample 1162, GI50 in nM, read-out: log(GI50) (converted))?
A: 0.286 nM
